Molecules are shown by their SMILES. *1 amine or outer side, *2 acyl side, *3 side chain or, on linkers, in order; H or OH if unused. Where a SMILES comes first, the peptide text is derived from it. Bridges are numbered along the chain shown (N, C = ends). [ ]: non-standard residue; d: D form. The star is where a group is joined. X5 = NC(=O)[C@H](CCCCNC(=O)CN1CCN(CC(=O)O)CCN(CC(=O)O)CCN(CC(=O)O)CC1)NC(=O)CCC(=O)NCCCOCCOCCOCCCN*; Propanoyl(3-(4-F-phenyl)) = O=C(CCc1ccc(F)cc1)*; 1Nal = N[C@@H](Cc1cccc2ccccc12)C(=O)O; Desaminotyrosyl = O=C(CCc1ccc(O)cc1)*; mXylylene = c1cc(C[*:1])cc(C[*:2])c1; Hydrocinnamoyl = O=C(CCc1ccccc1)*; tBuAla = CC(C)(C)C[C@H](N)C(=O)O; Cha = N[C@@H](CC1CCCCC1)C(=O)O; Aib = CC(C)(N)C(=O)O

Data on six compounds can be found in patent US20250296971A1, “GASTRIC INHIBITORY PEPTIDE RECEPTOR LIGANDS” (priority 2021, published 2025).

The assay concerns the target T1, GIPR (CHO-K1-hGIPR cells) (Homo sapiens, UniProt P48546).
T1 construct: host or cells: CHO-K1
T1 sequence (P48546 22-466): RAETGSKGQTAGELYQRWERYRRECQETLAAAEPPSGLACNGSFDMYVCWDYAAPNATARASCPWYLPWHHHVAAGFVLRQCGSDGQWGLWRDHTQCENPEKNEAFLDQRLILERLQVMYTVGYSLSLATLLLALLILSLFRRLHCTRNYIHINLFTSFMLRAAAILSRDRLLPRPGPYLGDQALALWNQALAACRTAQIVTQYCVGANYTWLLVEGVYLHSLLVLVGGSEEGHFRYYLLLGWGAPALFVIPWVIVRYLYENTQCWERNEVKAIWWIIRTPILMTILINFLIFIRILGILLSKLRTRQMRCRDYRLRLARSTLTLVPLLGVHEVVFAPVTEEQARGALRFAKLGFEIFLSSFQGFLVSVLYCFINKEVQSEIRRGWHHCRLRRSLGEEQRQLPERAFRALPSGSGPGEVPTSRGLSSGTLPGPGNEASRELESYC
Put plainly: FACS binding assay. The note with it: competition with 20 nM GIP-057, 4° C., 1 hour, read-out: pIC50 Category (converted). An outline of the steps: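 Median fluorescence in the APC channel, measured on washed CHO-K1 cells overexpressing human GIPR, was fitted by four-parameter logistic regression against peptide concentration to yield EC50 or IC50 values. Secondary labelling used APC-streptavidin (1 μg/mL, 30 min, ice).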

With `CC[C@H](C)[C@@H]1NC(=O)[C@H](CC(C)(C)C)NC(=O)C(C)(C)NC(=O)[C@@H](NC(=O)[C@H](CC(C)C)NC(=O)[C@H](CCC(=O)O)NC(=O)[C@@H]2CCCN2C(=O)[C@H](Cc2c[nH]c3ccccc23)NC(=O)[C@H](Cc2c[nH]c3ccccc23)NC(=O)[C@H](CC(=O)O)NC(C)=O)CSCc2cccc(c2)CSC[C@@H](C(=O)NCCCOCCOCCOCCCNC(=O)CCC(=O)N[C@@H](CCCCNC(=O)CN2CCN(CC(=O)O)CCN(CC(=O)O)CCN(CC(=O)O)CC2)C(N)=O)NC1=O` [GIP-133, Ac-Asp-Trp-Trp-Pro-Glu-Leu-[Cys(3MeBn)-Aib-Npg-Ile-Cys]-Ttds-Lys(DOTA)-NH2] (Ac-DWWPELC[Aib][tBuAla]IC-X5; linker 7-11 via mXylylene), the IC50 was 10 to 79.4 nM.
In the case of `CC[C@H](C)[C@@H]1NC(=O)[C@H](CC2CCCCC2)NC(=O)C(C)(C)NC(=O)[C@@H](NC(=O)[C@H](CC(C)C)NC(=O)[C@H](CCC(=O)O)NC(=O)[C@@H]2CCCN2C(=O)[C@H](Cc2c[nH]c3ccccc23)NC(=O)[C@H](Cc2c[nH]c3ccccc23)NC(=O)[C@H](CC(=O)O)NC(C)=O)CSCc2cccc(c2)CSC[C@@H](C(=O)NCCCOCCOCCOCCCNC(=O)CCC(=O)N[C@@H](CCCCNC(=O)CN2CCN(CC(=O)O)CCN(CC(=O)O)CCN(CC(=O)O)CC2)C(N)=O)NC1=O` [GIP-134, Ac-Asp-Trp-Trp-Pro-Glu-Leu-[Cys(3MeBn)-Aib-Cha-Ile-Cys]-Ttds-Lys(DOTA)-NH2] (Ac-DWWPELC[Aib][Cha]IC-X5; linker 7-11 via mXylylene) it was 10 to 79.4 nM.
`CC[C@H](C)[C@@H]1NC(=O)[C@H](CC(C)C)NC(=O)C(C)(C)NC(=O)[C@@H](NC(=O)[C@@H](CC(C)C)NC(=O)[C@H](CCC(=O)O)NC(=O)[C@@H]2CCCN2C(=O)[C@H](Cc2c[nH]c3ccccc23)NC(=O)[C@H](Cc2c[nH]c3ccccc23)NC(=O)[C@H](CC(=O)O)NC(=O)CCc2ccccc2)CSCc2cccc(c2)CSC[C@@H](C(=O)NCCCOCCOCCOCCCNC(=O)CCC(=O)N[C@@H](CCCCNC(=O)CN2CCN(CC(=O)O)CCN(CC(=O)O)CCN(CC(=O)O)CC2)C(N)=O)NC1=O` [GIP-135, Php-Asp-Trp-Trp-Pro-Glu-leu-[Cys(3MeBn)-Aib-Leu-Ile-Cys]-Ttds-Lys(DOTA)-NH2] (Hydrocinnamoyl-DWWPE[dL]C[Aib]LIC-X5; linker 7-11 via mXylylene): the IC50 was 10 to 79.4 nM.
Then `CC[C@H](C)[C@@H]1NC(=O)[C@H](CC(C)C)NC(=O)C(C)(C)NC(=O)[C@@H](NC(=O)[C@@H](CC(C)C)NC(=O)[C@H](CCC(=O)O)NC(=O)[C@@H]2CCCN2C(=O)[C@H](Cc2c[nH]c3ccccc23)NC(=O)[C@H](Cc2c[nH]c3ccccc23)NC(=O)[C@H](CC(=O)O)NC(=O)CCc2ccc(F)cc2)CSCc2cccc(c2)CSC[C@@H](C(=O)NCCCOCCOCCOCCCNC(=O)CCC(=O)N[C@@H](CCCCNC(=O)CN2CCN(CC(=O)O)CCN(CC(=O)O)CCN(CC(=O)O)CC2)C(N)=O)NC1=O` [GIP-136, 4FPhp-Asp-Trp-Trp-Pro-Glu-leu-[Cys(3MeBn)-Aib-Leu-Ile-Cys]-Ttds-Lys(DOTA)-NH2] ({Propanoyl(3-(4-F-phenyl))}-DWWPE[dL]C[Aib]LIC-X5; linker 7-11 via mXylylene), with 10 to 79.4 nM; and `CC[C@H](C)[C@@H]1NC(=O)[C@H](CC(C)C)NC(=O)C(C)(C)NC(=O)[C@@H](NC(=O)[C@@H](CC(C)C)NC(=O)[C@H](CCC(=O)O)NC(=O)[C@@H]2CCCN2C(=O)[C@H](Cc2c[nH]c3ccccc23)NC(=O)[C@H](Cc2c[nH]c3ccccc23)NC(=O)[C@H](CC(=O)O)NC(=O)CCc2ccc(O)cc2)CSCc2cccc(c2)CSC[C@@H](C(=O)NCCCOCCOCCOCCCNC(=O)CCC(=O)N[C@@H](CCCCNC(=O)CN2CCN(CC(=O)O)CCN(CC(=O)O)CCN(CC(=O)O)CC2)C(N)=O)NC1=O` [GIP-137, 4OHPhp-Asp-Trp-Trp-Pro-Glu-leu-[Cys(3MeBn)-Aib-Leu-Ile-Cys]-Ttds-Lys(DOTA)-NH2] (Desaminotyrosyl-DWWPE[dL]C[Aib]LIC-X5; linker 7-11 via mXylylene), with 10 to 79.4 nM.
Then `CC(=O)N[C@@H](CC(=O)O)C(=O)N[C@@H](Cc1c[nH]c2ccccc12)C(=O)N[C@@H](Cc1cccc2ccccc12)C(=O)N1CCC[C@H]1C(=O)N[C@@H](CCC(=O)O)C(=O)N[C@H](CC(C)C)C(=O)N[C@H]1CSCc2cccc(c2)CSC[C@@H](C(=O)NCCCOCCOCCOCCCNC(=O)CCC(=O)N[C@@H](CCCCNC(=O)CN2CCN(CC(=O)O)CCN(CC(=O)O)CCN(CC(=O)O)CC2)C(N)=O)NC(=O)[C@H](C(C)C)NC(=O)[C@H](CC(C)C)NC(=O)[C@H](C)NC1=O` [GIP-138, Ac-Asp-Trp-1Ni-Pro-Glu-leu-[Cys(3MeBn)-Ala-Leu-Val-Cys]-Ttds-Lys(DOTA)-NH2] (Ac-DW[1Nal]PE[dL]CALVC-X5; linker 7-11 via mXylylene), with 10 to 79.4 nM.
